Data from PubChem BioAssay AID2060500 (Molecular Pharmacology Branch, DTP, NCI, 2025).
pIC50: −log10 of the molar value. Values joined by “and” are separate entries in the source; they are usually repeats but may differ in a detail not shown here. Identical values can stand only once.

Tested on: 596521-263-R-J1-PDC complex spheroids, viability % of control
Assay: Anticancer human tumor 596521-263-R-J1-PDC patient-derived soft tissue sarcoma cell line growth inhibition [GQUAD]
Conditions: for viability, T/C: stronger effect = lower value; active means viability on the fitted dose curve at most 10% of control; inactive means the rest
Description: DNA G-quadruplex Stabilizer Agents in Combinations in Complex Spheroids
A high-throughput screen of multi-cell type tumor spheroids was designed to identify active combinations of DNA G-quadruplex stabilizer agents and targeted small molecules. Complex spheroids include a stromal component modeled by human endothelial cells (HUVEC) and fibroblasts modeled by human mesenchymal stem cells (MSCs). The concentration ranges selected for each drug and investigational agent were based upon clinically achievable concentrations if the clinical Cmax of the agent was known.
Compounds. The drugs and investigational agents: pidnarulex (CX-5461; NSC782164), APTO-253 (NSC789042), BRACO-19 (NSC847499), peposertib (NSC802822), ceralasertib (NSC780249), elimusertib (NSC800525), camonsertib (NSC841442), AZD-1390 (NSC803789), olaparib (NSC753686), talazoparib (NSC767125), ART-558 (NSC835418), sotorasib (NSC818433), MRTX-1133 (NSC836407), SN-38 (NSC673596), topotecan (NSC609699), etoposide (NSC141540), doxorubicin (NSC123127), gemcitabine (NSC613327), 5-fluorouracil (NSC19893), paclitaxel (NSC125973), vemurafenib (NSC761431), panobinostat (NSC761190), R-306465 (JNJ-16241199; NSC773264), adavosertib (NSC754352), TP-3654 (NSC805149), carboplatin (NSC241240), KSQ-4279 (NSC840948), and staurosporine (NSC755774) were obtained from the National Cancer Institute (NCI) Developmental Therapeutics Program Chemical Repository (34). The FDA-approved anticancer drug set is available from the NCI Developmental Therapeutics Program. […] The stock solutions were prepared in dimethyl sulfoxide (DMSO, Sigma-Aldrich, St. Louis, MO, cat. D2650) at 800-fold the tested concentration and stored at -70 degrees C prior to their use. All drugs and investigational agents were tested over a range starting from a high concentration at or near the clinical Cmax and decreasing in half-log increments. If the clinical Cmax for an agent had not been determined, the highest concentration tested was 10 microM.
2.3 Cell Culture. All cells were maintained in an incubator at 37 degrees C and 5% CO2 with 95% humidity. The PDC lines were cultured according to standard operating procedures established by the NCI PDMR. All PDCs were thawed and cultured in Matrigel-coated flasks prepared with a working solution of 1X Ham's F-12 nutrient mix, without supplementation (Invitrogen, cat. 11765054), 100 U/mL penicillin-streptomycin (Invitrogen, cat. 15140122), and 2.5% Matrigel (Corning Inc., cat. 354248) for the first three passages. The 857933-349-R-J2-PDC line was cultured in 6C/Colon 1B media, which includes advanced DMEM/F-12 (Thermo Fisher Scientific, cat. 12634028), 10 mM HEPES (Thermo Fisher Scientific, cat. 15630080), 1X GlutaMAX supplement (Thermo Fisher Scientific, cat. 35050061), 0.1 mg/mL primocin (InvivoGen, cat. ant-pm-2), 10% defined fetal bovine serum, heat inactivated (HyClone Laboratories Inc., cat. SH30070.03HI), 50% L-WRN conditioned media (ATCC, cat. CRL-3276), 1.25 mM N-Acetyl-L-cysteine (Sigma-Aldrich, cat. A9165), 10 mM nicotinamide (Sigma-Aldrich, cat. N0636), 1X B-27 supplement (Thermo Fisher Scientific, cat. 17504044), 1X N-2 supplement (Thermo Fisher Scientific, cat. 17502048), 10 microM Y-27632 dihydrochloride (Tocris Bioscience, cat. 1254), and 50 ng/mL human EGF recombinant protein (Thermo Fisher Scientific, cat. PHG0311). The 485176-168-R4-J1-PDC line was cultured in Panc media, which includes all 6C/Colon 1B media components plus 100 ng/mL human FGF-10 (Thermo Fisher Scientific, cat. 100-26), 500 nM SB-431542 (Selleckchem, cat. S1067), and gastrin (Tocris, cat. 3006).
[…]

[1] = curve of first compound, second compound 0.0316 µM
[2] = curve of first compound, second compound 0.1 µM
[3] = curve of first compound, second compound 0.316 µM
[4] = curve of first compound, second compound 1 µM
[5] = curve of first compound, second compound 3.16 µM
[6] = curve of first compound, second compound 10 µM
[7] = second compound 0.0316 µM, first compound 0.0316 µM
[8] = second compound 0.0316 µM, first compound 0.1 µM
[9] = second compound 0.0316 µM, first compound 0.316 µM
[10] = second compound 0.0316 µM, first compound 1 µM
[11] = second compound 0.0316 µM, first compound 3.16 µM
[12] = second compound 0.0316 µM, first compound 10 µM
[13] = second compound 0.1 µM, first compound 0.0316 µM
[14] = second compound 0.1 µM, first compound 0.1 µM
[15] = second compound 0.1 µM, first compound 0.316 µM
[16] = second compound 0.1 µM, first compound 1 µM
[17] = second compound 0.1 µM, first compound 3.16 µM
[18] = second compound 0.1 µM, first compound 10 µM
[19] = second compound 0.316 µM, first compound 0.0316 µM
[20] = second compound 0.316 µM, first compound 0.1 µM
[21] = second compound 0.316 µM, first compound 0.316 µM
[22] = second compound 0.316 µM, first compound 1 µM
[23] = second compound 0.316 µM, first compound 3.16 µM
[24] = second compound 0.316 µM, first compound 10 µM
[25] = second compound 1 µM, first compound 0.0316 µM
[26] = second compound 1 µM, first compound 0.1 µM
[27] = second compound 1 µM, first compound 0.316 µM
[28] = second compound 1 µM, first compound 1 µM
[29] = second compound 1 µM, first compound 3.16 µM
[30] = second compound 1 µM, first compound 10 µM
[31] = second compound 3.16 µM, first compound 0.0316 µM
[32] = second compound 3.16 µM, first compound 0.1 µM
[33] = second compound 3.16 µM, first compound 0.316 µM
[34] = second compound 3.16 µM, first compound 1 µM
[35] = second compound 3.16 µM, first compound 3.16 µM
[36] = second compound 3.16 µM, first compound 10 µM
[37] = second compound 10 µM, first compound 0.0316 µM
[38] = second compound 10 µM, first compound 0.1 µM
[39] = second compound 10 µM, first compound 0.316 µM
[40] = second compound 10 µM, first compound 1 µM
[41] = second compound 10 µM, first compound 3.16 µM
[42] = second compound 10 µM, first compound 10 µM
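Further: spheroids exposed to drugs for 7 days before viability reading.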

COc1ccc([C@@H](O)c2cc(-c3ncnc4cc(N5CCOCC5)ccc34)c(F)cc2Cl)nn1 + Cc1cnc(CNC(=O)c2c(=O)c3ccc(N4CCCN(C)CC4)nc3n3c2sc2ccccc23)cn1
5.07: pIC50 [1]
> 7.50: pIC50 [6]
5.77: pIC50 [3]
5.82: pIC50 [2]
6.20: pIC50 [4]
6.53: pIC50 [5]
inactive: viability, T/C [7] 99.7% | viability, T/C [8] 80.7% | viability, T/C [9] 79.4% | viability, T/C [10] 77.2% | viability, T/C [11] 49.2% | viability, T/C [12] 51.3% | viability, T/C [13] 92.3% | viability, T/C [14] 88.4% | viability, T/C [15] 67.5% | viability, T/C [16] 50.5% | viability, T/C [17] 54.6% | viability, T/C [18] 38.7% | viability, T/C [19] 84% | viability, T/C [20] 77.6% | viability, T/C [21] 63.6% | viability, T/C [22] 57.1% | viability, T/C [23] 42.9% | viability, T/C [24] 37.4% | viability, T/C [25] 64.5% | viability, T/C [26] 58.2% | viability, T/C [27] 58.9% | viability, T/C [28] 42.5% | viability, T/C [29] 43% | viability, T/C [30] 37.6% | viability, T/C [31] 55.7% | viability, T/C [32] 59.6% | viability, T/C [33] 45.2% | viability, T/C [34] 45.9% | viability, T/C [35] 40.3% | viability, T/C [36] 35.4% | viability, T/C [37] 45.4% | viability, T/C [38] 27.4% | viability, T/C [39] 42% | viability, T/C [40] 38.3% | viability, T/C [41] 36.3% | viability, T/C [42] 11%

COc1cc(C2c3cc4c(cc3C(OC3OC5COC(C)OC5C(O)C3O)C3COC(=O)C23)OCO4)cc(OC)c1O (stereo not drawn)
5.26 and 5.36 and < 5.00: pIC50 (curve of compound)
inactive: viability, T/C (compound 0.0316 µM) 107% and 103% (2×) | viability, T/C (compound 0.1 µM) 87% and 88.9% and 88.6% | viability, T/C (compound 0.316 µM) 87.5% and 92% and 89.4% | viability, T/C (compound 1 µM) 60.7% and 62.7% and 57.5% | viability, T/C (compound 3.16 µM) 58.4% and 54.6% and 68.8% | viability, T/C (compound 10 µM) 43.3% and 45.5% and 49.7%

CC(=O)O[C@H]1C(=O)[C@@]2(C)[C@H]([C@H](OC(=O)c3ccccc3)[C@]3(O)C[C@H](OC(=O)[C@H](O)[C@@H](NC(=O)c4ccccc4)c4ccccc4)C(C)=C1C3(C)C)[C@]1(OC(C)=O)CO[C@@H]1C[C@@H]2O + CN(C)c1ccc(Nc2c3ccc(NC(=O)CCN4CCCC4)cc3nc3cc(NC(=O)CCN4CCCC4)ccc23)cc1
inactive: viability, T/C [7] 40.7% | viability, T/C [8] 27.7% | viability, T/C [9] 25.7% | viability, T/C [10] 22.9% | viability, T/C [11] 26.8% | viability, T/C [12] 31.9% | viability, T/C [13] 37.5% | viability, T/C [14] 25.6% | viability, T/C [15] 24.3% | viability, T/C [16] 28% | viability, T/C [17] 23.1% | viability, T/C [18] 26.6% | viability, T/C [19] 37.2% | viability, T/C [20] 27.4% | viability, T/C [21] 25.2% | viability, T/C [22] 29.2% | viability, T/C [23] 29.3% | viability, T/C [24] 25.3% | viability, T/C [25] 38.3% | viability, T/C [26] 29% | viability, T/C [27] 26.5% | viability, T/C [28] 25.2% | viability, T/C [29] 28.3% | viability, T/C [30] 27.5% | viability, T/C [31] 35.6% | viability, T/C [32] 32.1% | viability, T/C [33] 26.9% | viability, T/C [34] 27.1% | viability, T/C [35] 27.3% | viability, T/C [36] 28.2% | viability, T/C [37] 34.3% | viability, T/C [38] 21.7% | viability, T/C [39] 21.4% | viability, T/C [40] 21.5% | viability, T/C [41] 21.6% | viability, T/C [42] 24.9%
> 7.50: pIC50 [1] | pIC50 [2] | pIC50 [3] | pIC50 [4] | pIC50 [5] | pIC50 [6]

COc1cccc2c1C(=O)c1c(O)c3c(c(O)c1C2=O)CC(O)(C(=O)CO)CC3OC1CC(N)C(O)C(C)O1 (stereo not drawn)
active: viability, T/C (compound 10 µM) 4.46% and 3.41% and 4.53%
5.97 and 6.14 and 5.95: pIC50 (curve of compound)
inactive: viability, T/C (compound 0.0316 µM) 93% and 105% and 97.4% | viability, T/C (compound 0.1 µM) 74.8% and 74.5% and 88.6% | viability, T/C (compound 0.316 µM) 63.1% and 58% and 65.8% | viability, T/C (compound 1 µM) 58.1% and 54.2% and 56.5% | viability, T/C (compound 3.16 µM) 29.4% and 28.7% and 29.6%
